What was measured:
[1] = tested on: CD4+T and CD8+T lymphocytes; experiment: Number of CD4+T and CD8+T cells in Opdivo-resistant Lewis lung cancer mice; format: in vivo; conditions: drug-resistant (Opdivo) Lewis lung cancer mice, average of 6 high power fields
Description: (§1) The number of CD4+T and CD8+T lymphocytes was analyzed by immunofluorescence staining, and the average number of CD4+T and CD8+T cells infiltrated in 6 high power fields was counted.

PD-1/PD-L1 [2] = experiment: PD-1/PD-L1 expression rate in transplanted tumor tissues, multidrug resistance model; format: in vivo; conditions: transplanted tumor tissues of B16 melanoma mice with multidrug resistance (as titled), Example 5 regimen
Excerpt: (§2) The positive expression rate of PD-1/PD-L1 in tumor tissues was detected by immunohistochemical SP method.

[3] = tested on: drug-resistant A375 melanoma cell lines; experiment: Reversal of dacarbazine resistance in drug-resistant A375 cells (MTT); format: cell-based, human; conditions: test drug 30 μg/ml; for Reversal index: IC50 before reversal/IC50 after reversal, drug-resistant A375
Description: The culture and experimental methods of cells were the same as above.
In the experiment, there are following groups: drug-resistant cell negative group, drug-resistant cells+test drug group 1 (30 μg/ml), drug-resistant cells+test drug group 2 (30 μg/ml), drug-resistant cells+test drug group 3 ([…]), drug-resistant cells+test drug group 4 (30 μg/ml), drug-resistant cells+test drug group 5 (30 μg/ml), drug-resistant cells+test drug group 6 (30 μg/ml).
Each test drug group was added with different concentrations of dacarbazine, each concentration including 3 replicate wells, and the OD value of each well was measured, to observe whether the cytotoxicity was shown. Each test drug and dacarbazine were respectively used to act on drug resistant cells, so as to compare with the effects of dacarbazine administrated alone on drug-resistant cells, and the IC50 value of dacarbazine against drug-resistant cell lines was calculated, as well as the IC50 value of each test drug after reversing drug-resistant cell lines.
Reversal index=IC50 value before reversal/IC50 value after reversal.

PD-1/PD-L1 [4] = experiment: PD-1/PD-L1 expression rate (immunohistochemical SP method), drug-resistant Lewis lung cancer tumor tissue; format: in vivo; conditions: transplanted tumor tissues of drug-resistant Lewis lung cancer in mice, Example 3 regimen
Excerpt: as §2

[5] = tested on: drug-resistant A549 lung cancer cell lines; experiment: MTT: non-cytotoxic concentration of test drugs, drug-resistant A549; format: cell-based, human; conditions: 48 h
Description: The culture and treatment methods of cells and drug-resistant cells were the same as above. For the experiment, there were eight groups: blank group, control group and test-drug groups. […] The plates were placed in an incubator and incubated for 48 h, then 5 mg/ml MTT (20 μl) was added to each well, and the plate was further incubated for 4 h.

[6] = tested on: drug-resistant A375 melanoma cell lines; experiment: MTT: non-cytotoxic concentration of test drugs, drug-resistant A375; format: cell-based, human; conditions: 48 h
Description: The culture and treatment methods of cells and drug-resistant cells were the same as above.
For the experiment, there were eight groups: blank group, control group and test-drug groups. […] The plates were placed in an incubator and incubated for 48 h, then 5 mg/ml MTT (20 μl) was added to each well, and the plate was further incubated for 4 h.

PD-1/PD-L1 [7] = experiment: PD-1/PD-L1 expression rate in tumor tissues of Opdivo-resistant B16 melanoma mice; format: in vivo; conditions: tumor tissues of drug-resistant (Opdivo) B16 melanoma mice
Excerpt: as §2

[8] = tested on: Opdivo-resistant Lewis lung cancer; experiment: Antitumor effect (tumor volume, weight, inhibition rate) in Opdivo-resistant Lewis lung cancer mice; format: in vivo; conditions: for Tumor volume (cm^3): 30 mg/kg i.p. once a day, + Opdivo groups: test drug 5 days, then Opdivo 30 mg/kg every other day; for Tumor inhibition rate (%) / Tumor weight: 30 mg/kg i.p., + Opdivo groups 30 + 30 mg/kg
Description: (§3) The concentration of cell lines was adjusted to 1×10^7/ml with the culture medium. 1×10^7/ml of cells were subcutaneously injected into the right armpit of mice, 0.1 ml per mouse.
(§4) The model mice were randomly divided into groups, eight for one group, and included test drug group 1, test drug group 2, test drug group 3, test drug group 4, positive drug Opdivo group, single drug chlorogenic acid group, test drug 1+Opdivo group, test drug 2+Opdivo group, test drug 3+Opdivo group, test drug 4+Opdivo group, and negative group, respectively.
(§5) Test drug group: from the second day after stopping administration to the model, the group received drug by intraperitoneal injection, once a day, 30 mg/kg.
(§6) Single drug group: from the second day after stopping administration to the model, the group received drug by intraperitoneal injection, once a day, 30 mg/kg.
(§7) Test drug+Opdivo group: from the second day after stopping administration to the model, the group received the test drug by intraperitoneal injection, once a day, and the test drug was stopped after administrating for 5 consecutive days; on the next day, Opdivo was intraperitoneally injected, once every other day, with the dosage of 30 mg/kg.
(§8) Positive drug group: once every other day, 30 mg/kg.
(§9) Negative group: normal saline was intraperitoneally injected, once a day, the same amount of saline.
(§10) Before each administration, the tumor volume was measured, and the experiment was stopped when the average tumor volume of negative group was greater than 1.5 cm^3.
(§11) After completion of administration, the experiment was stopped, and the mice were killed by cervical dislocation and weighed. The tumor was stripped and weighed, to calculate the tumor inhibition rate.

PD-1/PD-L1 [9] = experiment: PD-1/PD-L1 expression rate (immunohistochemical SP method), drug-resistant B16 melanoma tumor tissue; format: in vivo; conditions: transplanted tumor tissues of drug-resistant B16 melanoma in mice, Example 3 regimen
Excerpt: as §2

[10] = tested on: CD4+T and CD8+T lymphocytes; experiment: Number of CD4+T and CD8+T cells (immunofluorescence), drug-resistant Lewis lung cancer transplanted tumor; format: in vivo; conditions: transplanted tumor of drug-resistant Lewis lung cancer in mice, average of 6 high power fields
Description: as §1

PD-1/PD-L1 [11] = experiment: PD-1/PD-L1 expression rate in tumor tissues of Opdivo-resistant Lewis lung cancer mice; format: in vivo; conditions: tumor tissues of drug-resistant (Opdivo) Lewis lung cancer mice
Excerpt: as §2

[12] = tested on: Opdivo-resistant B16 melanoma; experiment: Antitumor effect (tumor volume, weight, inhibition rate) in Opdivo-resistant B16 melanoma mice; format: in vivo; conditions: for Tumor volume (cm^3): 30 mg/kg i.p. once a day, + Opdivo groups: test drug 5 days, then Opdivo 30 mg/kg every other day; for Tumor inhition rate (%) / Tumor weight: 30 mg/kg i.p., + Opdivo groups 30 + 30 mg/kg
Description: as §3, §4, §5, §6, §7, §8, §9, §10, §11

[13] = tested on: drug-resistant A549 lung cancer cell lines; experiment: Reversal of gemcitabine resistance in drug-resistant A549 cells (MTT); format: cell-based, human; conditions: test drug 30 μg/ml; for Reversal index: IC50 before reversal/IC50 after reversal, drug-resistant A549
Description: The culture and experimental methods of cells were the same as above. In the experiment, there are following groups: drug-resistant cell negative group, drug-resistant cells+test drug group 1 (30 μg/ml), drug-resistant cells+test drug group 2 (30 μg/ml), drug-resistant cells+test drug group 3 (30 μg/ml), drug-resistant cells+test drug group 4 (30 μg/ml), drug-resistant cells+test drug group 5 (30 μg/ml), drug-resistant cells+test drug group 6 (30 μg/ml). Each test drug group was respectively added with different concentrations of gemcitabine, each concentration including 3 replicate wells, and the OD value of each well was measured, to observe whether the cytotoxicity was shown. Each test drug and gemcitabine were respectively used to act on drug resistant cells, so as to compare with the effects of gemcitabine administrated alone on drug-resistant cells, and the IC50 value of gemcitabine against drug-resistant cell lines was calculated, as well as the IC50 value of each test drug after reversing drug-resistant cell lines. Reversal index=IC50 value before reversal/IC50 value after reversal.

Compound	CD4 + T cells (number) [1]	CD8 + T cells (number) [1]	Expression rate of PD-1/PD-L1, Positive PD-L1 (PD-1/PD-L1 [2])	Reversal index [3]	reversal effect on the drug-resistant A375 cell lines (in words) [3]	Expression rate of PD-1/PD-L1, Positive PD-L1 (PD-1/PD-L1 [4])	Non-cytotoxic concentration (all inhibition rates <10%) [5]	Non-cytotoxic concentration (all inhibition rates <10%) [6]	Expression rate of PD-1/PD-L1, Positive PD-L1 (PD-1/PD-L1 [7])	Tumor volume (cm^3) [8]	Tumor inhibition rate (%) [8]	Tumor weight [8]	Expression rate of PD-1/PD-L1, Positive PD-L1 (PD-1/PD-L1 [9])	CD4 + T cells (number) [10]	CD8 + T cells (number) [10]	Expression rate of PD-1/PD-L1, Positive PD-L1 (PD-1/PD-L1 [11])	Tumor volume (cm^3) [12]	Tumor inhition rate (%) [12]	Tumor weight [12]	Reversal index [13]	further results
O=C(/C=C/c1ccc(O)c(O)c1)O[C@@H]1C[C@](O)(C(=O)O)C[C@@H](O)[C@H]1O [Chlorogenic acid, chlorogenic acid]	66.52 ± 4.63	119.38 ± 6.55	72.26%	1.17	no significant reversal effect	81.83%	1256 µg/mL	830 µg/mL	83.41%	1.592 ± 0.704 cm^3	3.18%	2.46 ± 0.72 g	72.26%	80.63 ± 5.08	106.62 ± 6.88	70.36%	1.788 ± 0.539 cm^3	3.18%	2.74 ± 0.59 g	1.13	continuous treatment effect / effect on tumor volume control (in words) [8]: not obvious; continuous treatment effect / effect on tumor volume control (in words) [12]: not obvious; reversal effect on the drug-resistant A549 cell lines (in words) [13]: no significant reversal effect
O=C(/C=C/c1ccc(O)cc1)O[C@@H]1C[C@](O)(C(=O)O)C[C@@H](O)[C@H]1O [Coumaroylquinic acid, coumaroylquinic acid]	65.12 ± 5.17	113.64 ± 8.23	73.39%	1.06	no significant reversal effect	79.23%	1142 µg/mL	862 µg/mL	82.87%	1.584 ± 0.424 cm^3	3.88%	2.48 ± 0.55 g	73.39%	78.75 ± 6.39	98.53 ± 4.98	71.89%	1.762 ± 0.947 cm^3	4.24%	2.71 ± 0.46 g	1.10	reversal effect on the drug-resistant A549 cell lines (in words) [13]: no significant reversal effect

From US20210085630A1, “PHARMACEUTICAL COMPOSITION AND USE THEREOF IN PREPARING DRUG FOR TREATING TUMOR MULTI-DRUG RESISTANCE” (SICHUAN JIUZHANG BIOLOGICAL SCIENCE AND TECHNOLOGY CO., LTD., priority 2018, published 2021)
